According to patent US20150291645A1, “ISOACTEOSIDE DERIVATIVE AND USE THEREOF” (Sinphar Pharmaceutical Co., Ltd., priority 2014, published 2015):

Columns and labels:
[1] = test system: Human retinal pigment epithelium cells (ARPE-19); experiment: Protection of ARPE-19 cells against tert-butyl hydroperoxide oxidative damage (MTT); type: cell-based; details: 24 hours; for cell viability compared to the control / inhibition of human retinal pigment epithelium cell death: with tBHP, Sample 2 at 6.25, 12.5, 25 μM, Sample 8 at 8.75, 17.5, 35 μM, FIGS. 6A-6B
Procedure: Human retinal pigment epithelium cells (ARPE-19) were incubated in a DMEM/F12 cell culture medium (Life Technologies) containing 10% of fetal bovine serum (FBS), and were passaged using a 96-well plate after the cell concentration reached 90% full, which each well was seeded with 4.5×10^3 cells. Next day, Samples 2 and 8 were diluted with dimethyl sulfoxide (DMSO) to about 200 times of test concentration, and after that, appropriate amount of DMEM/F12 cell culture medium containing 5% fetal bovine serum was added and diluted to twice test concentration. Then, the resultant was mixed with 0.2 mM of tert-butyl hydroperoxide (tBHP, Sigma) in equal proportions to reach the test concentration (containing 0.5% of dimethyl sulfoxide). The diluted sample was added to the plate with the cells, which was placed in an incubator reacted for 24 hours, and the cell viability was analyzed by MTT solution. The absorbance was measured at a wavelength of 570 nm, and the cells not being treated by the medicine was a control, and the average absorbance of which was set to 100%. The cell viability of the cells being treated by the medicine was calculate by the following formula based on the measured absorbance:
Cell viability=(absorbance of the experimental group/average absorbance of the control)×100%.
The experiment results are shown in FIGS. 6A-6B, which show mean±standard error of six experimental groups (n=6). The statistical differences between damaging group (i.e. accepting damaging medicine, and no protective medicine) and testing medicine groups and the control group (Control, containing 0.5% of DMSO) were analyzed by Dunnett's multiple comparison test, which “*” represented p<0.05; “**” represented p<0.01; “***” represented p<0.001; and “****” represented p<0.0001.

Aβ42 = target: T1, Aβ42 (Homo sapiens, UniProt P05067); experiment: Aβ42 aggregation, thioflavin T assay; type: biochemical; details: for inhibition at 20 µM / inhibition at 200 µM: 30 minutes 37° C.; for inhibition at 20 µM: FIG. 4A; for inhibition at 200 µM: FIG. 4B; for inhibit Aβ42 accumulation (ThT assay): summary of Experimental example 4
T1 construct: Aβ42 was redissloved in DMSO to 2.5 mg/mL
T1 sequence (P05067 672-713 limits assumed): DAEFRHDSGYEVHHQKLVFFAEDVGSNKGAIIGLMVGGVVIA
Procedure: Experimental method: Aβ42 was redissloved in DMSO to 2.5 mg/mL, and Samples 1-9 were diluted with D-PBS to appropriate concentrations. The concentrations of Sample 1 were 10 μM and 100 μM, the concentrations of Sample 2-9 were 20 μM and 200 μM, and the concentrations of IsoA were 10 μg/mL and 100 μg/mL. Each reaction included 1 μL of Aβ42 (final concentration was 0.25 mg/mL) and 9 μL of the testing sample, which each concentration of each sample included 8 groups, and was placed at 37° C. reacting for 30 minutes after thoroughly mixed. 200 μL of Thioflavin T working solution was added and mixed thoroughly after the reaction completed, 200 μL of the which was placed into a black, clear bottom 96-well plate, and the ThT fluorescence intensity (Ex: 440 nm, Em: 482 nm) was measured to determine the level of Aβ42 aggregation. The value of not reacting with any sample (i.e. only containing 1 μL of Aβ42 and 9 μL of D-PBS, which the final concentration of Aβ42 was 0.25 mg/mL) was a control and set to 100%, and isoacteoside (IsoA) was used as a positive control. The values of the samples were compared to the control and expressed in percentage. The experiment results are shown in FIGS. 4A-4B, which show mean±standard error of eight experimental groups (n=8), and the statistical differences between the control and the testing samples were analyzed by Dunnett's multiple comparison test, which “*” represented p<0.05; “**” represented p<0.01; “***” represented p<0.001; and “****” represented p<0.0001.
(§1) The concentration of Sample 1 was 10 μM, the concentration of Samples 2-9 was 20 μM, and the concentration of IsoA was 10 μg/mL. The level of Aβ42 accumulation was measured by ThT assay, which the measured value of the control without adding any sample was set to 100%, and other values were adjusted accordingly. […] The concentration of Sample 1 was 100 μM, the concentration of Samples 2-9 was 200 μM, and the concentration of IsoA was 100 μg/mL. The level of Aβ42 accumulation was measured by ThT assay, which the measured value of the control without adding any sample was set to 100%, and other values were adjusted accordingly.

Aβ40 = Aβ40 (Homo sapiens, UniProt P05067); experiment: Aβ40 aggregation, thioflavin T assay; type: biochemical; details: for inhibition at 20 µM / inhibition at 200 µM: 4 hours 37° C.; for inhibition at 20 µM: FIG. 3A; for inhibition at 200 µM: FIG. 3B; for inhibit Aβ40 accumulation (ThT assay): summary of Experimental example 3
Chain of Aβ40 (P05067 672-711 limits assumed): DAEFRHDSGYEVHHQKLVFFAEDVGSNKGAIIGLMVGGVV
Procedure: Aβ40 aggregation: The Aβ40 stock was redissloved in DMSO to 10 mg/mL. Each group included 0.5 μL of 10 mg/mL Aβ40 and 4.5 μL of the testing sample diluted with Dulbecco's Phosphate-Buffered Saline (D-PBS). The concentrations of Sample 1 were 10 μM and 100 μM, and the concentrations of Sample 2-8 were 20 μM and 200 μM. The total reaction volume was 5 μL, and each concentration of each sample included 6 groups. After incubating in a 37° C. incubator for 4 hours, 200 μL of thioflavin T working solution (ThT working solution) was added and mixed thoroughly, which the thioflavin T working solution was 10 μM of thioflavin T dissolving in potassium phosphate buffer (PB buffer, pH 6.0). 200 μL of the mixture was placed into a black, clear bottom 96-well plate, and the ThT fluorescence intensity (Ex: 440 nm, Em: 482 nm) was measured to determine the level of Aβ40 aggregation. This experimental example used thioflavin T assay (ThT assay) to evaluate the level of Aβ40 aggregation. Since ThT and Congo red derivatives can form bonds with aggregated form of Aβ protein, the level of Aβ aggregation is higher when the amount of bonded ThT is more. By detecting the variation in the amount of ThT, the change in the level of Aβ aggregation can be estimated. The value of not reacting with any sample (i.e. only containing 0.5 μL of Aβ40 and 4.5 μL of D-PBS, which the final concentration of Aβ40 was 1 mg/mL) was a control and set to 100%, and isoacteoside (IsoA) was used as a positive control. The values of the testing samples were compared to the control and expressed in percentage, and the experiment results are shown in FIGS. 3A-3B. The results shown in FIGS. 3A-3B were mean±standard error of six experimental groups (n=6), and the statistical differences between the control and the testing samples were analyzed by Dunnett's multiple comparison test, which “*” represented p<0.05; “**” represented p<0.01; “***” represented p<0.001; and “****” represented p<0.0001.
as §1, with “The” for “The level of Aβ42 accumulation was measured by ThT assay, which the”

[2] = test system: Aβ40 in SH-SY5Y-APP695 cell medium; experiment: Inhibiting Aβ40 accumulation in culture medium of SH-SY5Y-APP695 cells (Human Aβ1-40 immunoassay, with MTT); type: cell-based; details: for effects of inhibiting Aβ40 accumulation: preliminary screening at lower concentration (10 and 20 μM), 24 hours
Procedure: Experimental method: Human neuroblastoma cell (SH-SY5Y-APP695), which expresses Swedish APP695 mutation, was incubated in a 3.5-cm culture dish until the cell concentration reached 90% full. When passage, each well of a 24-well plate was seeded with 4×10^5 cells. The culture medium was replaced with 300 μL of chemical-defined medium, which is a DMEM/F12 medium including 5 mM of Hepes buffer, 0.6% of glucose, 3 mM of NaHCO3, […], 100 μg/mL of transferrin, 20 nM of progesterone, 60 μM putrescine, 30 nM of sodium selenite, and 2 μg/mL of heparin, the next day. 3 μL of the testing sample was added into each well, and each concentration of each sample included 4 groups. After the cells were placed in an incubator (37° C., 5% CO2) and treated with the samples for 24 hours, the culture medium was collected and analyzed the amount of Aβ40 in the culture medium after treated by the samples through Human Aβ1-40 Immunoassay kits (Cat.KHB3482, Life Technologies). The cells treated by the samples were analyzed by MTT assay to evaluate the toxicity to the cells caused by sample treatment.
The testing concentrations of Sample 1 were 5 μM and 10 μM, and the testing concentrations of Samples 2-8 were 10 μM and 20 μM. The amount of Aβ40 in a SH-SY5Y-APP695 cell medium that there was no sample added as a control and set to 100%, and the amounts of Aβ40 in the medium after respectively treated by the testing samples were compared to the control and expressed in percentage. β-secretase inhibitor (β-SI) was used as a positive control. The experiment results are shown in FIGS. 1A-1D, which FIGS. 1A and 1C are result diagrams of the samples in inhibiting Aβ40 accumulation, and FIGS. 1B and 1D are result diagrams of the cell viability after treated by the samples. The results shown in FIGS. 1A-1D are mean±standard error of four experimental groups (n=4), and the statistical differences between the control and the testing samples were analyzed by Dunnett's multiple comparison test, which “*” represented p<0.05; “**” represented p<0.01; “***” represented p<0.001; and “****” represented p<0.0001.
Based on the experiment results of Experimental example 1, Sample 3, 4, and 6 having efficacy of inhibiting Aβ40 accumulation were selected. The testing concentrations of the samples were increased to 20, 50, and 100 μM, and were experimented using the method of Experimental example 1. FIG. 2A is a result diagram of the samples in inhibiting Aβ40 accumulation, and FIG. 2B is a result diagram of the cell viability after treated by the samples. The results shown in FIGS. 2A-2B are mean±standard error of four experimental groups (n=4), and the statistical differences between the control and the testing samples were analyzed by Dunnett's multiple comparison test, which “*” represented p<0.05; “**” represented p<0.01; “***” represented p<0.001; and “****” represented p<0.0001.

β-amyloid peptides (Aβ) = details: position of the caffeoyl group (sixth vs fourth), WO 2011/157059 A1; cited from earlier work
[3] = summary of Experimental examples 1 and 2

Row | Structure (SMILES) | inhibition at 20 µM (Aβ42) [%] | inhibit Aβ42 accumulation (ThT assay) (Aβ42) | inhibition at 20 µM (Aβ40) [%] | inhibition at 200 µM (Aβ40) [%] | inhibit Aβ40 accumulation (ThT assay) (Aβ40) | effects of inhibiting Aβ40 accumulation ([2]; FIGS. 1A-1D) | inhibit Aβ40 formation in cell [2, 3] | further results
1 | CC(=O)Oc1ccc(/C=C/C(=O)OCC2OC(OCCc3ccc(Cl)cc3)C(OC(C)=O)C(OC(C)=O)C2OC(C)=O)cc1OC(C)=O (stereo not drawn) [Sample 2] | ~20 | could effectively inhibit | ~20 | ~20 | could effectively inhibit |  |  | cell viability compared to the control [1]: even better then the control; inhibition of human retinal pigment epithelium cell death [1]: could be significantly inhibited; inhibition at 200 µM (Aβ42): ~40%
2 | O=C(/C=C/c1ccc(OCc2ccccc2)c(OCc2ccccc2)c1)OCC1OC(OCCc2ccccc2)C(O)C(O)C1O (stereo not drawn) [Sample 3] |  |  |  |  |  | had effects of inhibiting Aβ40 accumulation | could inhibit Aβ40 formation in cell | inhibition at 20 µM ([2]; Homo sapiens, 20 μM, condition of not affecting the cytotoxicity, FIGS. 2A-2B): ~20%; comparison among samples, inhibiting Aβ40 accumulation ([2]; preliminary screening, FIGS. 1A-1D): had the best result of inhibiting Aβ40 accumulation
3 | O=C(/C=C/c1ccc(O)c(O)c1)OCC1OC(OCCc2ccccc2)C(O)C(O)C1O (stereo not drawn) [Sample 4] | ~50 | could effectively inhibit | ~30 | ~20 | could effectively inhibit | had effects of inhibiting Aβ40 accumulation | could inhibit Aβ40 formation in cell | inhibition at 200 µM (Aβ42): ~70%; effect of increasing the sample concentration on inhibiting Aβ accumulation ([2]; 20, 50 and 100 μM, FIGS. 2A-2B): could not further enhance the efficacy of inhibiting Aβ accumulation
4 | O=C(/C=C/c1ccc(OCc2ccccc2)c(OCc2ccccc2)c1)OCC1OC(OCCc2cccc(OCc3ccccc3)c2)C(O)C(O)C1O (stereo not drawn) [Sample 6] |  |  |  |  |  | had effects of inhibiting Aβ40 accumulation | could inhibit Aβ40 formation in cell | inhibition at 50 µM ([2]; Homo sapiens, 50 μM, condition of not affecting the cytotoxicity, FIGS. 2A-2B): ~40%; comparison among samples, Aβ40 formation in cell [2, 3]: had the best result
5 | O=C(/C=C/c1ccc(O)c(O)c1)OCC1OC(OCCc2ccc(OCc3ccccc3)cc2)C(O)C(O)C1O (stereo not drawn) [Sample 8] | ~60 | could effectively inhibit | ~30 | ≤ 70 | could effectively inhibit |  |  | cell viability compared to the control [1]: even better then the control; inhibition of human retinal pigment epithelium cell death [1]: could be significantly inhibited; comparison among samples, Aβ42 accumulation (ThT assay) (Aβ42; summary): had the best result; comparison among samples, Aβ40 accumulation (ThT assay) (Aβ40; summary): had the best result
6 | C[C@@H]1O[C@@H](O[C@@H]2[C@@H](O)[C@H](OCCc3ccc(O)c(O)c3)O[C@H](CO)[C@H]2OC(=O)/C=C/c2ccc(O)c(O)c2)[C@H](O)[C@H](O)[C@H]1O [acteoside] |  |  |  |  |  |  |  | activity of inhibiting β-amyloid peptides (Aβ) accumulation (β-amyloid peptides (Aβ)): the activity decreased
7 | CC(C)(C)OO [tBHP, tert-butyl hydroperoxide, reference compound] |  |  |  |  |  |  |  | cell death ([1]; tBHP alone (0.2 mM mixed in equal proportions)): 30%-40%
